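The compound was tested at five concentrations on cells cultured in 96-well plates, with a 48-hour exposure period. GI50 marks 50% less growth. TGI marks complete inhibition of growth.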

Among the test systems are UO-31 renal; OVCAR-4 ovarian; RXF 393 renal; OVCAR-8 ovarian; MALME-3M melanoma; UACC-62 melanoma; NCI-H23 lung; CCRF-CEM leukemia; SK-MEL-2 melanoma; RPMI-8226 leukemia.
Holding throughout (assay): NCI-60 cell line screen, 48 h

`N#Cc1cc([N+](=O)[O-])ccc1NC(=O)C(=O)C(C(=O)/C=C/c1ccccc1)C1OC(=O)c2ccccc21` (stereo not given): the TGI in the assay with UO-31 renal, in the assay with OVCAR-4 ovarian, in the assay with RXF 393 renal, with OVCAR-8 ovarian, in the assay on MALME-3M melanoma and with UACC-62 melanoma was over 100 µM in each case. The TGI in the assay with NCI-H23 lung and in the assay with CCRF-CEM leukemia was over 100 µM in each case.

Take `COc1ccc(/C=C/c2n[nH]c3ccc(N4CCOC4=O)cc23)cc1`: the GI50 is 2.52 µM in the assay with UO-31 renal; 5.06 µM in the assay on OVCAR-4 ovarian; 2.53 µM in the assay on SK-MEL-2 melanoma; 2.2 µM in the assay on RPMI-8226 leukemia; 1.87 µM in the assay on RXF 393 renal; 2.31 µM in the assay with OVCAR-8 ovarian. In addition, the figures for the GI50 with MALME-3M melanoma, with UACC-62 melanoma and with NCI-H23 lung were 4.3 µM, 2.6 µM and 1.79 µM, respectively. The TGI is 9.92 µM with UO-31 renal; over 100 µM in the assay on OVCAR-4 ovarian; 6.21 µM in the assay with SK-MEL-2 melanoma; 5.55 µM in the assay on RPMI-8226 leukemia; 3.8 µM in the assay on RXF 393 renal; over 100 µM with OVCAR-8 ovarian. The TGI in the assay on MALME-3M melanoma worked out at 8.66 µM; in the assay on UACC-62 melanoma it was 6.83 µM; in the assay with NCI-H23 lung, 6.18 µM.

As to `Cc1ccccc1CN1CC=c2ccccc2=N1`, the TGI in the assay with UO-31 renal, in the assay with OVCAR-4 ovarian, in the assay on SK-MEL-2 melanoma, with RPMI-8226 leukemia, in the assay with OVCAR-8 ovarian and in the assay on MALME-3M melanoma was over 100 µM throughout. The TGI in the assay with UACC-62 melanoma, with NCI-H23 lung and in the assay with CCRF-CEM leukemia was over 100 µM each time.

`CC1=C(C(=O)NCc2ccccc2)C(c2ccccc2[N+](=O)[O-])C(C(=O)NCc2ccccc2)=C(C)N1`: the TGI was found to be 27 µM in the assay on UO-31 renal; 22.9 µM in the assay on OVCAR-4 ovarian; 23.4 µM in the assay on RXF 393 renal; 43.3 µM in the assay on OVCAR-8 ovarian; 27 µM with MALME-3M melanoma; 22.9 µM in the assay with UACC-62 melanoma. Besides, the values for the TGI in the assay on NCI-H23 lung and in the assay on CCRF-CEM leukemia were 25.4 µM and 44.7 µM, respectively.

With `c1ccc(CN(Cn2cccn2)Cn2cccn2)nc1`, the TGI with UO-31 renal is over 100 µM; with OVCAR-4 ovarian, over 100 µM; in the assay on SK-MEL-2 melanoma, over 100 µM; in the assay with RPMI-8226 leukemia, 78.8 µM; in the assay on RXF 393 renal, over 100 µM; in the assay with OVCAR-8 ovarian it was over 100 µM. Further, the TGI in the assay on UACC-62 melanoma, with NCI-H23 lung and with CCRF-CEM leukemia was over 100 µM in each case.

Regarding `Nc1ccn(C2CC(CO)C(O)C2O)c(=O)n1` (stereo not given), the TGI in the assay on UO-31 renal, with OVCAR-4 ovarian, with SK-MEL-2 melanoma, in the assay with RPMI-8226 leukemia, in the assay with RXF 393 renal and in the assay on OVCAR-8 ovarian was over 57.7 µM in each case. The TGI in the assay with MALME-3M melanoma and in the assay with UACC-62 melanoma was over 57.7 µM in each case.

In the case of `CN(C)CCNC(=O)c1cccc2[nH]c(-c3ccccc3)nc12`, the TGI was 27.7 µM in the assay with UO-31 renal; 82.5 µM in the assay with OVCAR-4 ovarian; 32.5 µM in the assay on SK-MEL-2 melanoma; 91.5 µM in the assay with RPMI-8226 leukemia; 33.2 µM in the assay with RXF 393 renal; 32.6 µM in the assay on UACC-62 melanoma. Also, the results for the TGI in the assay on NCI-H23 lung and with CCRF-CEM leukemia were 32.6 µM and over 100 µM, respectively.

Turning to `Nc1c(C(=O)Nc2ccccc2Cl)sc2nc3c(cc12)CCCCCC3`, the GI50 in the assay on UO-31 renal was 2.19 µM; in the assay on OVCAR-4 ovarian it was 2.11 µM; in the assay with SK-MEL-2 melanoma it was 2.77 µM; with RPMI-8226 leukemia it was over 100 µM; with RXF 393 renal, 1.85 µM; in the assay on OVCAR-8 ovarian it was 4.11 µM. Besides, the GI50 was 2.62 µM in the assay with MALME-3M melanoma, 3.32 µM in the assay on UACC-62 melanoma and 8.83 µM in the assay with NCI-H23 lung. Further, the TGI with UO-31 renal was 5.01 µM; with OVCAR-4 ovarian, 5.1 µM; with SK-MEL-2 melanoma it was 23.1 µM; in the assay on RPMI-8226 leukemia, over 100 µM; in the assay with RXF 393 renal, 3.98 µM; with OVCAR-8 ovarian, 30.5 µM. The results for the TGI with MALME-3M melanoma, with UACC-62 melanoma and in the assay with NCI-H23 lung were 9.33 µM, over 100 µM and over 100 µM, respectively.

`Cc1nc(NC(=O)CCCN2C(=O)c3cccc4cccc(c34)C2=O)sc1C(=O)Nc1cc(C(=O)NCCCN(C)C)n(C)c1`: the GI50 with UO-31 renal is over 100 µM; in the assay with OVCAR-4 ovarian, 94.8 µM; in the assay with SK-MEL-2 melanoma, over 100 µM; with RPMI-8226 leukemia, over 100 µM; with MALME-3M melanoma, over 100 µM; with UACC-62 melanoma, over 100 µM. In addition, in the assay on NCI-H23 lung, the GI50 is over 100 µM. Moreover, the TGI in the assay on UO-31 renal, with OVCAR-4 ovarian, in the assay on SK-MEL-2 melanoma, with RPMI-8226 leukemia, in the assay with MALME-3M melanoma and with UACC-62 melanoma was over 100 µM each time. In the assay with NCI-H23 lung, the TGI was over 100 µM.

As for `COc1ccc2c(c1)CC[C@@H]1[C@@H]2CC[C@]2(C)C(c3ccco3)=C(C=O)C[C@@H]12`, the GI50 in the assay on UO-31 renal was 31 µM; in the assay with OVCAR-4 ovarian, 20 µM; in the assay with SK-MEL-2 melanoma it was 29.2 µM; in the assay on RPMI-8226 leukemia, 3.89 µM; with RXF 393 renal, 0.484 µM; with OVCAR-8 ovarian it was 31.1 µM. Moreover, the GI50 with UACC-62 melanoma is 3.82 µM; in the assay with NCI-H23 lung it was 12.7 µM; with CCRF-CEM leukemia, 1.86 µM. The TGI in the assay with UO-31 renal is over 100 µM; with OVCAR-4 ovarian, over 100 µM; with SK-MEL-2 melanoma, 88.1 µM; with RPMI-8226 leukemia, 32.7 µM; in the assay with RXF 393 renal, 27.6 µM; in the assay with OVCAR-8 ovarian, 74.2 µM. Moreover, the TGI was 16.3 µM with UACC-62 melanoma, 69.4 µM in the assay with NCI-H23 lung and 4.85 µM with CCRF-CEM leukemia.

For `O=[N+]([O-])c1nccn1COCCF`, the TGI with UO-31 renal, with OVCAR-4 ovarian, with SK-MEL-2 melanoma, in the assay with RPMI-8226 leukemia, in the assay on OVCAR-8 ovarian and with MALME-3M melanoma was over 100 µM each time. Besides, the TGI in the assay on UACC-62 melanoma, with NCI-H23 lung and with CCRF-CEM leukemia was over 100 µM each time.

Take `CCOC(=O)c1sc(=S)c2c(C(=O)OCC)c(C(=O)OCC)sc2c1C(=O)OCC`: the GI50 in the assay on UO-31 renal is 15.1 µM; in the assay with OVCAR-4 ovarian, 20.7 µM; with SK-MEL-2 melanoma, 21.2 µM; with RPMI-8226 leukemia, 7.88 µM; in the assay on RXF 393 renal it was 13 µM; with OVCAR-8 ovarian, 17.8 µM. In addition, the GI50 was 12.1 µM with UACC-62 melanoma, 17.4 µM with NCI-H23 lung and 19.1 µM in the assay on CCRF-CEM leukemia. Moreover, the TGI in the assay with UO-31 renal worked out at 30.9 µM; in the assay with OVCAR-4 ovarian, 56.9 µM; with SK-MEL-2 melanoma it was 44.7 µM; with RPMI-8226 leukemia it was 28 µM; in the assay with RXF 393 renal it was 39.4 µM; in the assay on OVCAR-8 ovarian, 40 µM. The TGI in the assay with UACC-62 melanoma is 26.9 µM; in the assay with NCI-H23 lung, 35.5 µM; in the assay with CCRF-CEM leukemia, 61.7 µM.

Source of the values: PubChem BioAssay (NCI).
